Experimental data from patent US6346547B1, “N-substituted amino acids, antioxidant pharmaceutical compositions containing n-substituted amino acids and methods for preventing cardiovascular diseases and/or preventing and/or treating antioxidant responsive diseases therewith” (Checkpoint, Genetics, Inc., priority 1999, dated 2002).
“And” between values parts separate entries of the source, which are not always exact repeats. Equal values may be shown once.

Assays:
[1] = tested on: human Low Density Lipoprotein; assay: inhibition of copper catalyzed LDL autoxidation (FOX assay); format: biochemical
Description: The antioxidant performance of test compounds was evaluated by measuring the extent of low density lipoprotein hydroxyperoxide by copper catalyzed autoxidation using a published dye based color assay (FOX Assay, see Zadeh, “Methods in Enzymology”, 300, 58 (1999)). The assay is easily performed and read in a 96-well microtitre plate. Microtitre plate readers assure rapid measurement of optical density which gives precise replicate measurements. Samples are evaluated in duplicate of triplicate (n=2 or n=3) with FOX reagent to indicate the level of LDL-hydroperoxide formed. Samples containing only LDL and copper sulfate without test materials, served as a positive control for comparison with identical mixtures containing test materials (Tables 1-6). Inhibition is characterized by a lower optical density than that obtained without test materials (LDL and copper sulfate alone).
Briefly, the procedure involved mixing human Low Density Lipoprotein (Sigma Chemical Company L2139) at a concentration of between 200-1000 μg/mL in phosphate buffered saline pH−7.4 (Pierce #28372 BupH™ with copper sulfate to a final concentration of 10 μg/mL. Incubation at 25° C. or 37° C., open to air effected oxidation, the mixture was sampled at time zero and between 3 and 20 hours of incubation for measurement of hydroperoxide in the FOX assay. Samples 25-30 μL were diluted with 10 volumes of FOX reagent (ferrous ammonium sulfate and […], see Zadeh, noted above) and allowed to stand for 30 minutes. Thereafter they were read in a microtitre plate reader.
The inhibition of LDL oxidation by tricine, bicine, monocine, vitamin E, glycine-glycine (Good's buffer compound XIV) and seaweed extract was studied in the procedure above. Using the spectrophotometric technique known as the FOX assay, as described in Jiang, Z., et al., “Ferrous Ion Oxidation in Presence of Xylenol Orange for Detection of Lipid Hydroperoxide in Low Density Lipoprotein”, Analytical Biochemistry, Vol. 202, pp. 384-9 (1992), the oxidation of LDL's in the presence of known hydroxyl radical scavengers (vitamin E and Good's buffer glycine-glycine), and in the presence of therapeutic agents in accordance with the present invention (tricine, bicine, seaweed extract), was monitored. […] Norman Good et al., “Hydrogen Ion Buffers For Biological Research,” Biochemistry, vol. 5, p. 467 (1966). […] Table 6 is a comparison of tricine, bicine, monocine and vitamin E oxidation inhibition of LDL at 37° C., average n=3 measurement with standard deviation.

[2] = tested on: New Zealand white rabbits; assay: atherosclerotic lesions in thoracic aorta of cholesterol-fed rabbits; format: in vivo, rabbit; conditions: 12 weeks
Text: Ten female new Zealand white rabbits were divided into two groups of five (5) rabbits and subjected to an identical diet of Purina® rabbit chow supplemented with 1% cholesterol. […] A second group of five (5) rabbits received 1% tricine in their drinking water. Both groups were maintained under this feeding protocol for a period of twelve (12) weeks. Plasma samples were taken at study initiation and at two (2) week intervals throughout the study for measurement of total cholesterol. Systemic observations and body weights were regularly recorded. At twelve (12) weeks, the thoracic aorta was harvested from each animal, sliced longitudinally and preserved in 10% neutral formalin for subsequent analysis. Each aorta was individually stained with Sudan IV, and photographed for the extent of atherosclerotic lesions. Comparisons of percent atheroscledrotic lesions on the luminal surface between the groups enabled evaluation of the effect of tricine test article on atherosclerosis in this rabbit model.

Mongolian gerbils [3] = assay: gerbil forebrain ischemia (bilateral carotid occlusion): locomotor activity; format: in vivo, Mongolian gerbil; conditions: individual gerbil, Group 3, approximately 96 hours after surgery, first 15 minute period
rats = conditions: both, rat, in vivo, po, 14 days
Description: It is essential that any amino-acid-based compound used in accordance with the present invention have a low toxicity such that internal use in humans and other mammals is safe and well tolerated. Amino acid-based compounds used in accordance with the invention generally display no acute toxic effects at 1000 mg/Kg in rats after 2 weeks following oral administration. Preferably, amino acid-based compounds used in accordance with the present invention will display no effects at oral doses of at least 2000 mg/Kg in rats. […] For example, a cohort of rats can be fed a given dosage of an amino acid-based compound of general formula (I) and the relative toxic effects of the cohort can be monitored in comparison to a cohort fed a normal diet using standard EPA protocols.
Two cohorts of rats, each consisting of five females and five males, were marked and weighed. Each rat in a single cohort was administered 2000 mg/kg of tricine in a single oral dosage. Survival and body weight of the rats in each cohort was evaluated after 14 days to determine relative acute toxicity. Survival and general pathology was identical for both the control cohort and the tricine-treated cohort.

[4] = tested on: hippocampal neurons, CA1 area; assay: gerbil forebrain ischemia (bilateral carotid occlusion): histology of CA1 neuronal damage; format: in vivo, Mongolian gerbil; design: Total Rating, severity of neuronal damage to CA1 area, individual gerbil: scale not given here; conditions: oral tricine 2000 mg/Kg 60 minutes before and after carotid occlusion, day 5
Description: Mongolian gerbils are subjected to bilaterial occlusion of carotid arteries to cause complete forebrain ischemia. The Mongolian gerbil is extensively used as a model of cerebral ischemia because of its unusual cerebral circulation resulting in sensitive and pronounced destruction of hippocampal neuron cells. as a result, bilateral occlusion of carotid arteries causes complete forebrain ischemia. The gerbils were divided into three groups, Group 1 gerbils were sham control and were administered vehicle (control) orally without carotid occlusion. Group 2 received oral tricine treatment at 2000 mg/Kg in vehicle solution both 60 minutes before and after carotid occlusion. Group […] gerbils received vehicle (control) 60 minutes before and after occlusion. The arteries were occluded after a midline cervical incision was made to expose both common carotid arteries. The surgery was performed on a heated surface to maintain body temperature. On completion of surgery, the animals were placed on Vetbed® and allowed to recover under a heat lamp. (Group 1) was subjected to the same surgical procedures except that the carotid arteries were not occluded. The day of surgery is identified as Day 1. Animals were killed on day 5, after completion of locomotor testing, by overdose with anaesthetic and perfusion with saline followed by a solution containing 10% neutral buffered formalin to fix the brain in situ. The brains were removed by dissection, 5 μm sections were taken at the level of the dorsal hippocampus, to coincide with CA1 area, and stained with haematoxylin and eosin. the sections were examined under light microscope, rated for severity of neuronal damage to the CA1 area.

Mongolian gerbils [5] = assay: gerbil forebrain ischemia (bilateral carotid occlusion): locomotor activity; format: in vivo, Mongolian gerbil; conditions: individual gerbil, Group 3, approximately 96 hours after surgery
Description: Mongolian gerbils are subjected to bilaterial occlusion of carotid arteries to cause complete forebrain ischemia. The Mongolian gerbil is extensively used as a model of cerebral ischemia because of its unusual cerebral circulation resulting in sensitive and pronounced destruction of hippocampal neuron cells. as a result, bilateral occlusion of carotid arteries causes complete forebrain ischemia. The gerbils were divided into three groups, Group 1 gerbils were sham control and were administered vehicle (control) orally without carotid occlusion. Group 2 received oral tricine treatment at 2000 mg/Kg in vehicle solution both 60 minutes before and after carotid occlusion. […] The arteries were occluded after a midline cervical incision was made to expose both common carotid arteries. The surgery was performed on a heated surface to maintain body temperature. On completion of surgery, the animals were placed on Vetbed® and allowed to recover under a heat lamp. (Group 1) was subjected to the same surgical procedures except that the carotid arteries were not occluded. The day of surgery is identified as Day 1. At approximately 96 hours after surgery, animals were tested for changes in locomotor activity, over two (2) consecutive periods of 15 minutes, using an automated cage. The automated cages contained photoactivated beams at two (2) positions (a low height and a high height) that recorded the number of crossings each gerbil made in each of two consecutive 15 minute periods.

[6] = tested on: hippocampal neurons, CA1 area; assay: gerbil forebrain ischemia (bilateral carotid occlusion): histology of CA1 neuronal damage; format: in vivo, Mongolian gerbil; design: scale not given here; conditions: Group 3, 6 animals examined
[7] = 10 mM, time 0 hours, 37° C., average n=3, none 0.03
[8] = 10 mM, time 3 hours, 37° C., average n=3, none 0.99
[9] = 1% tricine in drinking water, 1% cholesterol diet, Sudan IV stain
[10] = 1% tricine in drinking water, five rabbits, control mean 65

O=C(O)CN(CCO)CCO [Bicine, N,N-bis(hydroxyethyl)glycine]
FOX assay OD (LDL hydroperoxide) [1, 7]: −0.02 | FOX assay OD (LDL hydroperoxide) [1, 8]: 0.02 | FOX assay OD (LDL hydroperoxide) ([1]; Bicine 25 μM, time 0 hours, room temperature, average n = 3): −0.010 | FOX assay OD (LDL hydroperoxide) ([1]; Bicine 25 μM, time 4 hours, room temperature, average n = 3, none 0.295): 0.050 | FOX assay OD (LDL hydroperoxide) ([1]; Bicine 50 μM, time 0 hours, room temperature, average n = 3): −0.007 | FOX assay OD (LDL hydroperoxide) ([1]; Bicine 50 μM, time 4 hours, room temperature, average n = 3, none 0.295): 0.030 | FOX assay OD (LDL hydroperoxide) ([1]; Bicine 100#M, time 0 hours, room temperature, average n = 3): −0.002 | FOX assay OD (LDL hydroperoxide) ([1]; Bicine 100#M, time 4 hours, room temperature, average n = 3, none 0.295): 0.04

O=C(O)CNCCO [Monocine, N-hydroxyethyl glycine]
FOX assay OD (LDL hydroperoxide) [1, 7]: −0.04 | FOX assay OD (LDL hydroperoxide) [1, 8]: 0.05

O=C(O)CNC(CO)(CO)CO [Tricine, N-tris(hydroxymethyl)methyl glycine]
Arch Area, percent atherosclerotic lesions on luminal surface, individual rabbit [2, 9]: 19% and 39% and 27% and 17% and 22% | Descending Area, percent atherosclerotic lesions on luminal surface, individual rabbit [2, 9]: 21% (2×) and 28% and 8% and 17% | Total Area, percent atherosclerotic lesions on luminal surface, individual rabbit [2, 9]: 20% and 38% and 26% and 14% and 21% | Arch Area, Mean Value ([2]; 1% tricine in drinking water, five rabbits, control mean 63): 25% | Descending Area, Mean Value [2, 10]: 19% | Total Area, Mean Value [2, 10]: 24% | Arch Area, Median Value ([2]; 1% tricine in drinking water, five rabbits, control median 65): 22% | Total Area, Median Value ([2]; 1% tricine in drinking water, five rabbits, control median 67): 21% | Descending Area, Median Value ([2]; 1% tricine in drinking water, five rabbits, control median 68): 21% | reduced plaque deposits in the aorta ([2]; tricine treated rabbits versus control group): 63% | FOX assay OD (LDL hydroperoxide) [1, 7]: −0.01 | FOX assay OD (LDL hydroperoxide) [1, 8]: 0.05 | FOX assay OD (LDL hydroperoxide) ([1]; Tricine 25 μM, time 0 hours, room temperature, average n = 3): −0.012 | FOX assay OD (LDL hydroperoxide) ([1]; Tricine 25 μM, time 4 hours, room temperature, average n = 3, none 0.295): 0.061 | FOX assay OD (LDL hydroperoxide) ([1]; Tricine 50 μM, time 0 hours, room temperature, average n = 3): −0.007 | FOX assay OD (LDL hydroperoxide) ([1]; Tricine 50 μM, time 4 hours, room temperature, average n = 3, none 0.295): 0.038 | FOX assay OD (LDL hydroperoxide) ([1]; Tricine 100 μM, time 0 hours, room temperature, average n = 3): 0.0645 | FOX assay OD (LDL hydroperoxide) ([1]; Tricine 100 μM, time 4 hours, room temperature, average n = 3, none 0.295): 0.028 | locomotor activity, beam crossings, High beam, 15 min (Mongolian gerbils [3]): 56 and 44 (2×) and 67 and 55 and 110 | preliminary acute toxicity level (rats): > 2000 mg/kg | Side 1 Rating, severity of neuronal damage to CA1 area, individual gerbil [4]: 3 (Marked→approximately 75% to 100% of neurons damaged) and 1 (Minimal→up to approximately 25% of neurons damaged) (5×) | Side 2 Rating, severity of neuronal damage to CA1 area, individual gerbil [4]: 3 (Marked→approximately 75% to 100% of neurons damaged) and 1 (Minimal→up to approximately 25% of neurons damaged) (4×) and 0 | Total Rating, severity of neuronal damage to CA1 area, individual gerbil ([4]; sum of both sides): 6 and 2 (4×) and 1 | locomotor activity, beam crossings, High beam, Total (Mongolian gerbils [5]): 71 and 51 and 76 and 56 and 174 | locomotor activity, beam crossings, Low beam, Total (Mongolian gerbils [5]): 665 and 691 and 525 and 615 and 727 and 451 | locomotor activity, beam crossings, Low beam, 15 min (Mongolian gerbils [5]; first 15 minute period): 455 and 559 and 456 and 553 and 543 and 372 | locomotor activity, beam crossings, High beam, 30 min (Mongolian gerbils [5]; second 15 minute period): 15 and 7 and 9 and 16 and 12 and 64 | locomotor activity, beam crossings, Low beam, 30 min (Mongolian gerbils [5]; second 15 minute period): 210 and 132 and 69 and 62 and 184 and 79 | Mean Score for Group ([6]; occluded vehicle Group 7: 4.3): 2.5 | Total Score for Group ([6]; occluded vehicle Group 7: 13 (3 animals)): 15
